Experimental data taken from ChEMBL document CHEMBL1201862, “PubChem BioAssay data set” (2004).
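Method: 48-hour compound exposure of cells in 96-well plates, five concentrations, linear interpolation of endpoints. GI50 marks 50% less growth.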 The source made the active and inactive calls. Cut-off read from the data, not from the text of the source: active = GI50 up to about 1.1 µM and inactive = higher.

Experiments:
Assay in all cases: NCI anticancer screen, dose series, 48 h
786-0 = test system: 786-0
A498 = test system: A498
COLO 205 = test system: COLO 205
DU-145 = test system: DU-145
KM12 = test system: KM12
LOX IMVI = test system: LOX IMVI
MCF7 = test system: MCF7
MDA-MB-231 = test system: MDA-MB-231
MDA-MB-435 = test system: MDA-MB-435
MDA-N = test system: MDA-N
NCI-H226 = test system: NCI-H226
NCI/ADR-RES = test system: NCI/ADR-RES
OVCAR-5 = test system: OVCAR-5
RXF 393 = test system: RXF 393
SF-268 = test system: SF-268
SK-MEL-28 = test system: SK-MEL-28
SK-MEL-5 = test system: SK-MEL-5
SR = test system: SR
U-251 = test system: U-251
HL-60 = test system: HL-60

SMILES	GI50 (786-0)	GI50 (A498)	GI50 (COLO 205)	GI50 (DU-145)	GI50 (KM12)	GI50 (LOX IMVI)	GI50 (MCF7)	GI50 (MDA-MB-231)	GI50 (MDA-MB-435)	GI50 (MDA-N)	GI50 (NCI-H226)	GI50 (NCI/ADR-RES)	GI50 (OVCAR-5)	GI50 (RXF 393)	GI50 (SF-268)	GI50 (SK-MEL-28)	GI50 (SK-MEL-5)	GI50 (SR)	GI50 (U-251)	GI50 (HL-60)
COC(OC)C1OC(CO)C(n2cc(C)c(=O)[nH]c2=O)C1O (stereo not drawn)	> 100 µM (inactive)	> 100 µM (inactive)	> 100 µM (inactive)	> 100 µM (inactive)	> 100 µM (inactive)	> 100 µM (inactive)	> 100 µM (inactive)	> 100 µM (inactive)	> 100 µM (inactive)	> 100 µM (inactive)	> 100 µM (inactive)	> 100 µM (inactive)	> 100 µM (inactive)	61.7 µM (inactive)	> 100 µM (inactive)	> 100 µM (inactive)	> 100 µM (inactive)	> 100 µM (inactive)	> 100 µM (inactive)	
COP(=O)(/C=C/c1cc(C(=O)OCc2ccccc2)n(S(=O)(=O)c2ccccc2)c1)OC	> 100 µM (inactive)	> 100 µM (inactive)	> 100 µM (inactive)	> 100 µM (inactive)	> 100 µM (inactive)	> 100 µM (inactive)	> 100 µM (inactive)	> 100 µM (inactive)	> 100 µM (inactive)	> 100 µM (inactive)		> 100 µM (inactive)	> 100 µM (inactive)	> 100 µM (inactive)	> 100 µM (inactive)	> 100 µM (inactive)	> 100 µM (inactive)	> 10 µM (inactive)	> 100 µM (inactive)	> 100 µM (inactive)
CC12c3c4cccc3Oc3cc(N)cc(c31)Oc1cc(N)cc(c12)O4	2.56 µM (inactive)	2.74 µM (inactive)	3.29 µM (inactive)	5.52 µM (inactive)	4.26 µM (inactive)	6 µM (inactive)	4.37 µM (inactive)	3.5 µM (inactive)	1.24 µM (inactive)	1.31 µM (inactive)	5.62 µM (inactive)	0.953 µM (active)	4.31 µM (inactive)	0.408 µM (active)	4.31 µM (inactive)	6.21 µM (inactive)	3.3 µM (inactive)	6.22 µM (inactive)	6.93 µM (inactive)	
CCCCCCCSCC(O)COC(c1ccccc1)(c1ccccc1)c1ccccc1 (stereo not drawn)	48.8 µM (inactive)	> 100 µM (inactive)	39.8 µM (inactive)	> 100 µM (inactive)	0.051 µM (active)	36.1 µM (inactive)	40.1 µM (inactive)	> 100 µM (inactive)	56.4 µM (inactive)	40.9 µM (inactive)	18.1 µM (inactive)	72.1 µM (inactive)	34.8 µM (inactive)		20.3 µM (inactive)	> 100 µM (inactive)	23.6 µM (inactive)	22.1 µM (inactive)	50.9 µM (inactive)	26.9 µM (inactive)
CC(=O)O/C=C\OC1CCCC1	> 100 µM (inactive)	> 100 µM (inactive)	> 100 µM (inactive)	> 100 µM (inactive)	> 100 µM (inactive)	> 100 µM (inactive)	> 100 µM (inactive)	> 100 µM (inactive)	> 100 µM (inactive)	> 100 µM (inactive)	> 100 µM (inactive)	> 100 µM (inactive)		> 100 µM (inactive)	> 100 µM (inactive)	> 100 µM (inactive)	> 100 µM (inactive)	> 100 µM (inactive)	> 100 µM (inactive)	> 100 µM (inactive)
O=C(Cc1nc2ccc([N+](=O)[O-])cc2nc1O)C(=O)Nc1cc(Cl)c(Cl)cc1Cl	> 100 µM (inactive)	> 100 µM (inactive)	> 100 µM (inactive)	> 100 µM (inactive)	65.6 µM (inactive)	69 µM (inactive)	> 100 µM (inactive)	> 100 µM (inactive)	> 100 µM (inactive)	> 100 µM (inactive)	> 100 µM (inactive)	> 100 µM (inactive)	> 100 µM (inactive)	> 100 µM (inactive)	> 100 µM (inactive)	> 100 µM (inactive)	> 100 µM (inactive)	41.8 µM (inactive)	> 100 µM (inactive)	
CC1=CC(=O)[C@@H](O)[C@]2(C)[C@H]3[C@@]4(O)OC[C@]35[C@H]([C@@H](C)[C@H]4O)[C@@H](O)C(=O)O[C@@H]5C[C@@H]12	0.349 µM (active)	0.448 µM (active)	0.543 µM (active)	0.33 µM (active)	0.202 µM (active)	0.0895 µM (active)	0.0382 µM (active)	0.252 µM (active)	0.232 µM (active)	0.213 µM (active)	0.194 µM (active)	2.29 µM (inactive)	0.706 µM (active)	0.391 µM (active)	0.231 µM (active)	0.156 µM (active)	0.118 µM (active)	77.6 µM (inactive)	0.0509 µM (active)	
